Measured values as given in patent US20140162974A1, “METHODS FOR MODULATION OF PHOSPHORUS AND FGF23” (Luitpold Pharmaceuticals, Inc., priority 2012, published 2014).

Key:
[1] = VIT-30 safety: composite cardiovascular endpoint and adverse events; format: in vivo
Experimental: Study visits were on Days 0, 3, 7, 10, 14, 28, 56, and 120. A phone assessment occurred on Day 90.
The Venofer Group received 5 doses of Venofer, 200 mg for a total dose of 1,000 mg.
For Venofer, subjects received, as an IV push injection over 2 to 5 minutes, 200 mg on Days 0, 7, and 14 with 2 additional doses given: 1 between Days 0 and 7 and the other between Days 7 and 14 (i.e., for a total of 5 doses [1,000 mg]).
For safety, the primary measure was the proportion of subjects experiencing treatment-emergent adverse event included in the primary composite safety endpoint. Treatment-emergent events included events that started on or after the first dose of randomized treatment. The composite safety endpoint included: deaths due to any cause; nonfatal myocardial infarction; nonfatal stroke; unstable angina requiring hospitalization; congestive heart failure requiring hospitalization or medical intervention; arrhythmias; protocol-defined hypertensive events; and protocol-defined hypotensive events. These events were adjudicated in a blinded fashion. Supportive safety measures included: proportion of subjects who died (all cause mortality); time to first event comprising the primary composite safety endpoint; proportion of subjects reporting treatment-emergent adverse events, overall and related; proportion of subjects reporting treatment-emergent serious adverse events, overall and related; incidence of treatment-emergent potentially clinically significant (PCS) clinical laboratory values; and incidence of treatment-emergent PCS vital sign values.
The Safety Population consisted of all subjects who received a dose of randomized treatment. All safety analyses were performed with the Safety Population.
Safety assessments were summarized for the Safety Population unless stated otherwise. Subjects were analyzed under the treatment actually received.
The precision of the estimated treatment group difference was measured by the width of the 95% CI.
The number and percent of subjects who reported treatment-emergent adverse events were summarized for each treatment group. A treatment-emergent adverse event was an event that began after receipt of randomized treatment.
The adverse event profile was characterized with severity (as graded by Version 3.0 of the NCI CTCAE) and relationship (unrelated and related) to study drug. Related adverse events were events that were possibly or probably related to treatment in the Investigator's judgment. Events with unknown severity or relationship were counted as unknown.
The number and percent of subjects who reported treatment-emergent serious adverse events were similarly summarized for each treatment group. The number and percent of subjects who reported treatment-emergent adverse events resulting in discontinuation of study drug were similarly summarized for each treatment group.
Time to the first adverse event comprising the primary composite safety endpoint was summarized with the Kaplan-Meier approach. […] The log-rank statistic were used to compare time-to-event curves between treatment groups and a 95% CI of the hazard ratio was calculated with a Cox proportional hazards model.

[2] = Example 3 trial: adverse events; format: in vivo, human
Experimental: Study visits were on Days 0 (when iron was infused), 1 (24 hours after iron infusion), 7, 14, and 35. The primary objectives were to determine the effect of iron deficiency on cFGF23 and iFGF23 levels and the effect of intravenous iron on iFGF23 and cFGF23 levels.
Randomization occurred centrally via a fax-based system. […] The complete dose was infused over 15 minutes on day 0. […] An initial test dose of 25 mg was administered slowly over 5 minutes.
Laboratory testing of blood and three-hour urine collections was performed at the screening visit and on study days 0 (when iron was infused), 1 (24 hours after iron infusion), 7, 14, and 35 (see e.g., FIG. 2A). Any subject who experienced a reduction in serum phosphate below the normal range after day 0 underwent additional phosphate measurements at 14 day intervals following day 35 until the level returned to the normal reference range. Safety evaluations of all subjects included ascertainment of adverse events, physical examinations at all study visits, and laboratory assessments. Any subject who withdrew from the study received a follow-up phone call to ascertain adverse events 30 days after they received study drug.
The pre-specified primary endpoints were changes in blood and urine markers of phosphate and bone metabolism among the evaluable population, defined as those subjects with baseline and at least one post-randomization set of FGF23 and blood and urinary phosphate levels. Secondary endpoints included the proportion of subjects achieving a hemoglobin increase […] anytime between baseline and day 35, and the change from baseline to highest hemoglobin, ferritin, and TSAT anytime during the 35-day study period. Additional safety endpoints included incidence, severity, and seriousness of adverse events, and incidence of treatment-emergent abnormal clinical laboratory values in the safety population, defined as all subjects who received the study drug regardless of subsequent laboratory testing.
The number and proportion of subjects who experienced an adverse event in the safety population was summarized and rates between the iron treatment groups using Fisher's exact test were compared for the categorical safety endpoints. Analyses were conducted using SAS version 9 (Cary, N.C.). All statistical tests were 2-tailed and p values<0.05 were considered statistically significant.

[3] = Single-dose toxicity studies; format: in vivo, rodents and dogs
[4] = Intra-arterial, perivenous, or intravenous tolerance studies; format: in vivo, rabbit; details: intra-arterial
[5] = In vitro and in vivo mutagenicity tests
dextran antibodies = assay: Dextran antigenicity test
Description: (§1) FCM can mimic physiologically occurring ferritin. FCM is metabolized by the glycolytic pathway.

[6] = Acute toxicity relative to iron sucrose; details: in vivo
Description: as §1

serum phosphate = details: previous studies (2-10); cited from earlier work

## polynuclear iron (III)-hydroxide 4(R)-(poly-(1→4)-O-α-glucopyranosyl)-oxy-2(R),3(S),5(R),6-tetrahydroxy-hexanoate [FCM]
[1]; 2 injections of 750 mg
  tolerability: well tolerated
[1]; 10 subjects
  subjects who discontinued the study or study drug subsequent to a protocol-defined hypertensive event: 10.5%
[1]; Cox proportional hazards
  hazard ratio (FCM versus Venofer) excluding protocol-defined hypertensive and hypotensive events: 1.017
  hazard ratio (FCM versus Venofer) for death due to any cause, nonfatal myocardial infarction, or nonfatal stroke: 0.685
[1]; component of primary composite safety endpoint
  protocol-defined hypertensive events: 7.45%
[1]; in vivo
  drug related treatment emergent adverse event: dizziness: 2.4%
  drug related treatment emergent adverse event: flushing: 3.0%
  drug related treatment emergent adverse event: hypertension: 4.6%
  drug related treatment emergent adverse event: nausea: 8.6%
  drug related treatment emergent adverse event: vomiting: 2.0%
  serious adverse event: cardiac failure congestive: 2.4%
  subjects prematurely discontinued from study drug due to adverse events: 2.6%
  subjects with Grade 3 treatment emergent adverse events: 12.9%
  subjects with Grade 4 treatment emergent adverse events: 4.7%
  subjects with Grade 5 (fatal) treatment emergent adverse events: 1.2%
  subjects with adjudicated events of death due to any cause, nonfatal myocardial infarction, or nonfatal stroke: 1.88%
  subjects with adverse event that resulted in discontinuation from the study: 2.4%
  subjects with at least 1 serious adverse event: 15.8%
  subjects with at least 1 treatment emergent adverse event: 65.4%
  treatment emergent adverse event: hypertension: 10.7%
  treatment emergent adverse event: nausea: 13.5%
[1]; possibly or probably related
  subjects with at least 1 drug related treatment emergent adverse event: 23.4%
[2]
  subjects who experienced one or more adverse events: 68%
  subjects with adverse events considered to be related to study drug: 32%
[2]; p=0.008 between groups
  adverse event: reduced serum phosphate noted by subjects' physicians: 32%
[2]; safety population
  Discontinuation from study due to adverse event, n (%): 2 (8%) n (%)
  Patients experiencing one or more adverse events related to study drug, n (%): 8 (32%) n (%)
  Patients experiencing one or more adverse events, n (%): 17 (68%) n (%)
  Patients experiencing one or more serious adverse events, n (%): 0 (0%) n (%)
[3]
  safe and tolerated single intravenous dose, as multiple of the equivalent of 1,000 mg iron once weekly in humans: up to 60 times
[4]
  treatment-related local tissue irritation: No treatment-related local tissue irritation was observed
[5]
  clastogenicity, mutagenicity, chromosomal damage or bone marrow cell toxicity: no evidence
Dextran antibodies
  specific responses in a dextran antigenicity test: no specific responses
[6]
  acute toxicity relative to iron sucrose: one-fifth
Serum phosphate
  occurrence of transient reductions in serum phosphate levels: up to 60%
